Like-named read-outs stand apart in the source and are kept apart here. Where only a bound is given, the exact number is not on record here.

This is an account of results in publication PMC8347595, “N-Skatyltryptamines—Dual 5-HT6R/D2R Ligands with Antipsychotic and Procognitive Potential” (Molecules, 2021).

The subject of one data set is 5-HT6. Set-up: method as in Dupuis et al. (2008) [31]. Particulars: Figure 8; ref Dupuis et al. (2008) [31]; cited from earlier work.
The next data set deals with 5-HT2AR (Homo sapiens, UniProt P28223). The experiment in a line: Radioligand binding assay, [3H]-ketanserin displacement. The following applies: Table 1. More on the design: host or cells: CHO-K1; membrane preparation.
Chain of 5-HT2AR (P28223 whole entry): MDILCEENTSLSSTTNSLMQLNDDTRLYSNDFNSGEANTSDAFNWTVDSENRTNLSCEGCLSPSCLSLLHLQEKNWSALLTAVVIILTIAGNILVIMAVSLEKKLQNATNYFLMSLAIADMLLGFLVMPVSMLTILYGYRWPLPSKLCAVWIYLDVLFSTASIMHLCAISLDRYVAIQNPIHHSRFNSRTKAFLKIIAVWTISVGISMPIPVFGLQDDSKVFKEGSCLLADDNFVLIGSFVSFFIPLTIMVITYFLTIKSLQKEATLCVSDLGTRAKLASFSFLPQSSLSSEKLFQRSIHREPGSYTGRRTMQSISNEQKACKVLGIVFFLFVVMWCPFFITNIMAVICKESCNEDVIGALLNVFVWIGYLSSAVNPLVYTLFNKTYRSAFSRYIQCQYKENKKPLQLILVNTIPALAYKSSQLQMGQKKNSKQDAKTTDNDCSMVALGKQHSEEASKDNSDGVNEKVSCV
Another data set addresses 5-HT6R (Homo sapiens, UniProt P50406). The experiment in a line: Radioligand binding assay, [3H]-LSD displacement.
The target in another data set is 5-HT7R (Homo sapiens, UniProt P34969). The experiment in a line: Radioligand binding assay, [3H]-5-CT displacement.
Chain of 5-HT7R (P34969 1-432): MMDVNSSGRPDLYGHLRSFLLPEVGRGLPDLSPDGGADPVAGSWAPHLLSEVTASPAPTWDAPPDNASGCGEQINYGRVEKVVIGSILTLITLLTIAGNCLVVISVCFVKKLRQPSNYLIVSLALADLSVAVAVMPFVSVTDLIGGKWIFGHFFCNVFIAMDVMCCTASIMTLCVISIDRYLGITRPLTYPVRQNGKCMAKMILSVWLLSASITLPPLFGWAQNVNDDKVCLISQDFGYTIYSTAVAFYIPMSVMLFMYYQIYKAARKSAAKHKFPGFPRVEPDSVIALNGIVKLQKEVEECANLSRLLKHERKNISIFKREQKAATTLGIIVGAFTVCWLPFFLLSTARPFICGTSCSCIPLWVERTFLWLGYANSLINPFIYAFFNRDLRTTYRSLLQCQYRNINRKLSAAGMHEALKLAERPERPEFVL
The next data set addresses T1, 5-HT1AR (Homo sapiens, UniProt P08908).
T1 sequence (P08908 1-422): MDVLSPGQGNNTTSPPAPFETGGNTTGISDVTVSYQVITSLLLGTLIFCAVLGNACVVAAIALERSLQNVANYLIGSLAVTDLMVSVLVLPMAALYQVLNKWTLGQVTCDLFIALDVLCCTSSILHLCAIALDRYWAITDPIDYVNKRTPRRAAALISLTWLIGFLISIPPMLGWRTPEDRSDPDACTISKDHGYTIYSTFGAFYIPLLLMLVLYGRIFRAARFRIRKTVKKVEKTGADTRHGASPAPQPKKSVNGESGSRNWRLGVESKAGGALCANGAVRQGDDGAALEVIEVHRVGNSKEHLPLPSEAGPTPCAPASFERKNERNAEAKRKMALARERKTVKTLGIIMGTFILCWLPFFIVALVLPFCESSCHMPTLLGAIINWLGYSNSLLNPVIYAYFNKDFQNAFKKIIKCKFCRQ
The experiment in a line: Radioligand binding assay, [3H]-8-OH-DPAT displacement.

In data set [1] the target is T2, D2R (Homo sapiens, UniProt P14416). The experiment in a line: Radioligand binding assay, [3H]-raclopride displacement.
T2 sequence (P14416 whole entry): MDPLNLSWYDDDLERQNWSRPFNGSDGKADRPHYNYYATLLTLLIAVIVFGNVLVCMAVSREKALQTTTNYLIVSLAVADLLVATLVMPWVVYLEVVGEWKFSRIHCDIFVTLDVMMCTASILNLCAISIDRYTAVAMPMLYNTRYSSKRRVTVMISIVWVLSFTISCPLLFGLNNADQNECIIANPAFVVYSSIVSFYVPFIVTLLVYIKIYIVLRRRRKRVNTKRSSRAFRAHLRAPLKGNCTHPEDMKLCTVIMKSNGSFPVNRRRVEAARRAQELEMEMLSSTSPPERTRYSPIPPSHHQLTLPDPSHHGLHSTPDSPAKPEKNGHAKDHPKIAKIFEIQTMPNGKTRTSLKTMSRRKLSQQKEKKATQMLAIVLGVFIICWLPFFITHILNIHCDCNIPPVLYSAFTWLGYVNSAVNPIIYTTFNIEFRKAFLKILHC
In another data set the target is T3, Human Serotonin 5-HT6R (Homo sapiens, UniProt P50406).
T3 construct: host or cells: 1321N1 (frozen recombinant cells)
T3 sequence (P50406 whole entry): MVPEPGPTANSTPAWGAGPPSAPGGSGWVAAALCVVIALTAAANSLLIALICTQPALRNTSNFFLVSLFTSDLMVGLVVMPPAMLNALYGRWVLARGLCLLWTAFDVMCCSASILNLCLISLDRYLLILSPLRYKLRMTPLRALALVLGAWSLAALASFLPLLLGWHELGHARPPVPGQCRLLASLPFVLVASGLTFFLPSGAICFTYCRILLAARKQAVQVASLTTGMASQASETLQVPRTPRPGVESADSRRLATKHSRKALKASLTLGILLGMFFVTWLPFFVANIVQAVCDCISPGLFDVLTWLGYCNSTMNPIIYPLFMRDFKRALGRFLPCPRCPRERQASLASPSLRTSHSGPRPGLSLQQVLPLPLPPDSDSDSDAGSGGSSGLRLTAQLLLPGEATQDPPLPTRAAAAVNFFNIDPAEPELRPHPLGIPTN
The experiment in a line: 5-HT6R functional assay, antagonistic mode (cAMP induced by 5-CT, 1321N1 cells). The format is cell-based. On the procedure:
The properties of compounds to inhibit cAMP production induced by a 5-HT6R agonist 5-CT (1000 nM) was evaluated. Compounds were tested in triplicate at eight concentrations (10^−11–10^−4 M). The level of cAMP was measured using frozen recombinant 1321N1 cells expressing the Human Serotonin 5-HT6R (PerkinElmer). Total cAMP was measured using the LANCE cAMP Detection Kit (PerkinElmer), according to the manufacturer’s instructions. For quantification of cAMP levels, 2000 cells/well ([…]) were incubated with a mixture of compounds ([…]) for 30 min at room temperature in a 384-well white opaque microtiter plate. After incubation, the reaction was stopped and cells were lysed by the addition of […] of working solution ([…] ULight-anti-cAMP) for 1 h at room temperature. Time-resolved fluorescence resonance energy transfer (TR-FRET) was detected by an Infinite M1000 Pro (Tecan) using instrument settings from the LANCE cAMP Detection Kit manual. […] The agonistic properties of compounds were determined with an analogous procedure, but without stimulation with 5-CT [10, 36].

In data set [2] the target is T2, D2R. The experiment in a line: D2R functional assay, antagonist mode (cAMP, HEK293 cells). The format is cell-based. Set-up: expressed in transfected cells. The procedure:
The supernatant was aspirated, and the cell pellet was resuspended in stimulation buffer (1 × HBSS, 5 mM HEPES, 0.5 mM IBMX, 0.1% BSA).
The functional properties of compounds were evaluated using the LANCE Ultra cAMP Detection Kit (PerkinElmer). D2 receptors in HEK293 cells are coupled to Gi subtype and decreased cAMP production. […] Each compound was tested in triplicate at eight concentrations (10^−11–10^−4 M).
For quantification of cAMP levels, cells (5 µL) were incubated with 5 µL mixture of compounds (tested ligand and forskolin with 100 nM quinpirole for antagonist binding mode) for 30 min at room temperature in 384-well white opaque microtiter plate (PerkinElmer). After incubation, the reaction was stopped and cells were lysed by the addition of 10 µL working solution (5 µL Eu-cAMP and 5 µL ULight-anti-cAMP). The assay plate was incubated for 1 h at room temperature. Time-resolved fluorescence resonance energy transfer (TR-FRET) signal was detected by an Infinite M1000 Pro (Tecan) using instrument settings from the LANCE Ultra cAMP Detection Kit manual.

The conditions of data set [3]: 5 h, 200 µM, pH 7.4.
Where [4] appears, read: read-out: pKi 5-HT2A (converted).

Chain of 5-HT6R (P50406 whole entry): as above

As to `O=C1CCc2ccc(OCCCCN3CCN(c4cccc(Cl)c4Cl)CC3)cc2N1` [Aripiprazole], the Kb in the data set with 5-HT6 was […].
With `CN1CCN(C2=Nc3cc(Cl)ccc3Nc3ccccc32)CC1` [Clozapine], the Kb in the data set with 5-HT6 was […].
Regarding `Cc1ccc2[nH]cc(CCNCc3c[nH]c4ccccc34)c2c1` [Compound 2], the Ki is 562 nM at 5-HT2AR (setting [4]); 129 nM at 5-HT6R (pKi 5-HT6, Table 1); 2950 nM at 5-HT7R; 692 nM on 5-HT1AR (pKi 5-HT1A, Table 1); over 10000 nM on D2R [1] (pKi D2, Table 1).
For `COc1ccc2[nH]cc(CCNCc3c[nH]c4ccccc34)c2c1` [Compound 3], the Ki at 5-HT2AR (pKi 5-HT2A) is 83.2 nM; on 5-HT6R (pKi 5-HT6, Table 1), 117 nM; at 5-HT7R, 562 nM; on 5-HT1AR (Ki 5-HT1AR), 156 nM; at 5-HT1AR (pKi 5-HT1A, Table 1), 155 nM. Further, at D2R [1] (Table 1), the “pKi D2” value was determined as 6.49.
Take `Clc1ccc2[nH]cc(CCNCc3c[nH]c4ccccc34)c2c1` [Compound 4]: the Ki on 5-HT6R (pKi 5-HT6, Table 1) was 107 nM; on D2R [1] (pKi D2, Table 1), 2450 nM.
Turning to `Fc1cccc2c(CCNCc3c[nH]c4ccccc34)c[nH]c12` [Compound 6], the Ki was 380 nM on 5-HT2AR (setting [4]); 168 nM at 5-HT6R (Ki 5-HT6, Figure 8); 170 nM on 5-HT6R (pKi 5-HT6, Table 1); 10200 nM at 5-HT7R; 2750 nM at 5-HT1AR (pKi 5-HT1A, Table 1); 2950 nM at D2R [1] (pKi D2, Table 1).
On to `Clc1cccc2c(CCNCc3c[nH]c4ccccc34)c[nH]c12` [Compound 7], for which the Ki on 5-HT2AR (setting [4]) is 631 nM; at 5-HT6R (Ki 5-HT6, Figure 8), 133 nM; on 5-HT6R (pKi 5-HT6, Table 1), 132 nM; on 5-HT7R it was 25100 nM; on 5-HT1AR (pKi 5-HT1A, Table 1), 5130 nM; on D2R [1] (pKi D2, Table 1) it was 11700 nM.
Take `Brc1cccc2c(CCNCc3c[nH]c4ccccc34)c[nH]c12` [Compound 8]: the Ki on 5-HT2AR (setting [4]) is 776 nM; on 5-HT6R (Ki 5-HT6, Figure 8) it was 161 nM; on 5-HT6R (pKi 5-HT6, Table 1) it was 162 nM; at 5-HT7R, 20400 nM; at 5-HT1AR (pKi 5-HT1A, Table 1), 6030 nM; on D2R [1] (pKi D2, Table 1), 3020 nM.
For `Oc1ccc2[nH]cc(CNCCc3c[nH]c4ccccc34)c2c1` [Compound 9], the Ki on 5-HT2AR (setting [4]) is 1950 nM; on 5-HT6R (pKi 5-HT6, Table 1), 2240 nM; at 5-HT7R it was 5130 nM; at 5-HT1AR (pKi 5-HT1A, Table 1), 2880 nM; at D2R [1] (pKi D2, Table 1) it was 7590 nM.
As to `Fc1ccc2[nH]cc(CNCCc3c[nH]c4ccccc34)c2c1` [Compound 10], the Ki at 5-HT2AR (setting [4]) is 3470 nM; at 5-HT6R (pKi 5-HT6, Table 1) it was 407 nM; on 5-HT7R, 4790 nM; at 5-HT1AR (pKi 5-HT1A, Table 1), 490 nM; on D2R [1] (pKi D2, Table 1) it was 8510 nM.
The like results for `Clc1ccc2[nH]cc(CNCCc3c[nH]c4ccccc34)c2c1` [Compound 11] were, in that order, 3240 nM, 513 nM, 3800 nM, 676 nM and 2090 nM.
The like results for `Ic1ccc2[nH]cc(CNCCc3c[nH]c4ccccc34)c2c1` [Compound 12] were, in that order, 2340 nM, 457 nM, 5130 nM, 490 nM and 2090 nM.
A word on the EC50: it is the concentration giving half of the maximal effect. Higher therefore signals a less potent agent. Consider `Fc1ccc2c(CNCCc3c[nH]c4ccccc34)c[nH]c2c1` [Compound 13], for which the Kb on Human Serotonin 5-HT6R is 30 nM; on D2R [2], 91 nM. In addition, on D2R [2], a half-maximal response (EC50) required 91 nM. Moreover, the Ki at 5-HT2AR (pKi 5-HT2A) was 2570 nM; at 5-HT6R (Ki 5-HT6, Figure 8) it was 225 nM; at 5-HT6R (pKi 5-HT6, Table 1) it was 224 nM; at 5-HT7R, 18200 nM; on 5-HT1AR it was 1350 nM; on D2R [1] (Ki D2, Figure 8) it was 299 nM. The Ki at D2R [1] (pKi D2, Table 1) was 302 nM.
On to `Fc1cccc2c(CNCCc3c[nH]c4ccccc34)c[nH]c12` [Compound 16], for which the Ki at 5-HT2AR (setting [4]) was 1230 nM; at 5-HT6R (pKi 5-HT6, Table 1), 316 nM; on 5-HT7R, 12900 nM; on 5-HT1AR (pKi 5-HT1A, Table 1), 5620 nM.
Turning to `c1ccc(COc2cccc3c(CNCCc4c[nH]c5ccccc45)c[nH]c23)cc1` [Compound 19], the Ki on 5-HT2AR (setting [4]) was 2290 nM; at 5-HT6R (Ki 5-HT6, Figure 8), 303 nM; at 5-HT6R (pKi 5-HT6, Table 1) it was 302 nM; at 5-HT7R, 11200 nM; at 5-HT1AR (pKi 5-HT1A, Table 1) it was 741 nM; on D2R [1] (pKi D2, Table 1) it was 4070 nM.
`COc1ccc2[nH]cc(CCNCc3c[nH]c4c(Cl)cccc34)c2c1` [Compound 20]: the Ki at 5-HT2AR (setting [4]) was 309 nM; on 5-HT6R (pKi 5-HT6, Table 1), 97.7 nM; on 5-HT7R it was 295 nM; at 5-HT1AR it was 79.4 nM; at D2R [1] (pKi D2, Table 1) it was 2340 nM.
For the compound `COc1ccc2[nH]cc(CCNCc3c[nH]c4cc(Cl)ccc34)c2c1` [Compound 21], the Ki on 5-HT2AR (setting [4]) is 174 nM; on 5-HT6R (pKi 5-HT6, Table 1) it was 52.5 nM; on 5-HT7R, 813 nM; on 5-HT1AR (pKi 5-HT1A, Table 1), 186 nM; on D2R [1] (pKi D2, Table 1), 1550 nM.
Take `Clc1ccc2c(CCNCc3c[nH]c4c(Cl)cccc34)c[nH]c2c1` [Compound 22]: the Ki is 4070 nM at 5-HT2AR (setting [4]); 363 nM on 5-HT6R (pKi 5-HT6, Table 1); 13200 nM at 5-HT7R; 5620 nM on 5-HT1AR (pKi 5-HT1A, Table 1); 5010 nM on D2R [1] (pKi D2, Table 1).
For the compound `CCn1cc(C(=O)O)c(=O)c2cc(F)c(N3CCNCC3)cc21` [Norfloxacin, norfloxacin, reference compound], the “PAMPA Pe ± SD” value in data set [3] is reported as 0.56 10^−6 cm/s.
On to `Cc1cc2c(s1)Nc1ccccc1N=C2N1CCN(C)CC1` [Olanzapine], for which the Kb with 5-HT6 is […].
